Data published in the supplement of paper PMC10307832.

Tests used:
Assay in all cases: relative viability (nuclei count vs DMSO), 5 days (fraction); higher = more cells survive
[1] = compound: CN[C@@H]1C[C@H]2O[C@@](C)([C@@H]1OC)n1c3ccccc3c3c4c(c5c6ccccc6n2c5c31)C(=O)NC4 [Staurosporine] + Nc1ncn([C@H]2C[C@H](O)[C@@H](CO)O2)c(=O)n1 [Decitabine] (partner 2 µM)
Method in brief: (§1)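 Five library-drug doses in √10 steps were combined with a fixed anchor-drug dose, or a single drug was given alone, by pin tool to lung cancer cell lines in 1536-well plates the day after seeding. Nuclei were stained and counted after 5 days. Relative viability is the nuclei count in treated wells over that in vehicle wells, taken as the median of duplicate plates.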

[2] = compound: O=c1[nH]cc(F)c(=O)[nH]1 [5-Fluorouracil] + CCNC(=O)c1noc(-c2cc(C(C)C)c(O)cc2O)c1-c1ccc(CN2CCOCC2)cc1 [Luminespib] (partner 0.01 µM)
Method in brief: as §1

Sulindac + Bortezomib = compound: CC1=C(CC(=O)O)c2cc(F)ccc2/C1=C\c1ccc([S+](C)[O-])cc1 [Sulindac] + CC(C)C[C@H](NC(=O)[C@H](Cc1ccccc1)NC(=O)c1cnccn1)B(O)O [Bortezomib] (partner 0.002 µM)
Method in brief: as §1

Sulindac + Crizotinib = compound: CC1=C(CC(=O)O)c2cc(F)ccc2/C1=C\c1ccc([S+](C)[O-])cc1 [Sulindac] + C[C@@H](Oc1cc(-c2cnn(C3CCNCC3)c2)cnc1N)c1c(Cl)ccc(F)c1Cl [Crizotinib] (partner 1 µM)
Method in brief: as §1

| Cell Line | relative viability ([1]; first compound 0.005 µM) | relative viability ([1]; first compound 0.01581 µM) | relative viability ([1]; first compound 0.05 µM) | relative viability ([1]; first compound 0.1581 µM) | relative viability ([1]; first compound 0.5 µM) | relative viability ([2]; first compound 0.02 µM) | relative viability ([2]; first compound 0.2 µM) | relative viability ([2]; first compound 0.6325 µM) | relative viability ([2]; first compound 2 µM) | relative viability (Sulindac + Bortezomib; first compound 0.08 µM) | relative viability (Sulindac + Bortezomib; first compound 0.253 µM) | relative viability (Sulindac + Bortezomib; first compound 0.8 µM) | relative viability (Sulindac + Bortezomib; first compound 2.53 µM) | relative viability (Sulindac + Bortezomib; first compound 8 µM) | relative viability (Sulindac + Crizotinib; first compound 0.08 µM) | relative viability (Sulindac + Crizotinib; first compound 0.253 µM) | relative viability (Sulindac + Crizotinib; first compound 0.8 µM) | relative viability (Sulindac + Crizotinib; first compound 2.53 µM) | relative viability (Sulindac + Crizotinib; first compound 8 µM) |
| --- | --- | --- | --- | --- | --- | --- | --- | --- | --- | --- | --- | --- | --- | --- | --- | --- | --- | --- | --- |
| NCI-H1437 | 0.639 | 0.442 | 0.439 | 0.248 | 0.15 | 0.706 | 0.324 | 0.313 | 0.202 | 0.553 | 0.767 | 0.293 | 0.418 | 0.688 | 1.15 | 0.992 | 0.58 | 0.978 | 1.04 |
| NCI-H3122 | 0.541 | – | 0.602 | – | 0.329 | 0.104 | 0.09 | 0.095 | 0.088 | 1.05 | 1.01 | 1.1 | 1.04 | 1.02 | 0.282 | 0.251 | 0.266 | 0.232 | 0.259 |
| NCI-H2085 | 0.527 | 0.4 | 0.463 | 0.364 | 0.352 | 0.418 | 0.456 | 0.445 | 0.349 | 0.976 | 1.06 | 0.917 | 1.12 | 1.11 | 0.735 | 0.944 | 0.779 | 0.772 | 0.953 |
| PC-3 [JPC-3] | 0.883 | 0.586 | 0.55 | 0.422 | 0.349 | 0.66 | 0.753 | 0.621 | 0.524 | 0.967 | 0.796 | 1.02 | 0.907 | 0.862 | 1.09 | 1.06 | 0.959 | 1.02 | 1.02 |
| NCI-H838 | 0.368 | 0.271 | 0.181 | 0.139 | 0.141 | 0.261 | 0.245 | 0.209 | 0.16 | 0.951 | 0.774 | 0.512 | 0.628 | 0.76 | 1.12 | 0.781 | 0.674 | 0.903 | 0.884 |
| NCI-H1755 | 0.757 | 0.634 | 0.483 | 0.336 | 0.133 | 0.57 | 0.346 | 0.331 | 0.219 | 1.25 | 1.03 | 0.85 | 1.01 | 1.04 | 1 | 0.886 | 0.743 | 0.981 | 0.935 |
| NCI-H1650 | 0.397 | 0.533 | 0.341 | 0.168 | 0.124 | 0.213 | 0.185 | 0.246 | 0.211 | 0.31 | 0.193 | 0.224 | 0.204 | 0.213 | 1.17 | 0.878 | 0.912 | 0.979 | 1.02 |
| NCI-H650 | 0.343 | 0.411 | 0.258 | 0.235 | 0.188 | 0.766 | 0.533 | 0.348 | 0.277 | 0.845 | 0.877 | 0.862 | 0.897 | 1.08 | 0.788 | 0.73 | 0.793 | 0.637 | 0.914 |
| HCC-15 | 0.436 | – | 0.274 | 0.134 | 0.106 | 0.293 | 0.294 | 0.292 | 0.225 | 1.34 | 1.08 | 0.676 | 1.07 | 1.07 | 0.952 | 0.934 | 0.647 | 0.834 | 0.883 |
| PC-14 | 0.22 | 0.137 | 0.0771 | 0.0491 | 0.0544 | 0.117 | 0.151 | 0.171 | 0.191 | 1.05 | 0.902 | – | 0.929 | 0.783 | 0.942 | 0.891 | 0.726 | 0.911 | 1.02 |
| HOP-62 | 0.219 | 0.289 | 0.19 | 0.131 | 0.126 | 0.953 | 0.92 | 0.853 | 0.855 | 0.913 | 1.03 | 1.02 | 0.809 | 0.564 | 1.06 | 1.25 | 1.06 | 0.843 | 0.987 |
| NCI-H322M | 0.667 | 0.49 | 0.529 | 0.475 | 0.49 | 0.841 | 1 | 0.724 | 0.552 | 1.22 | 1.33 | 1.19 | 1.3 | 1.38 | 1.02 | 1.05 | 0.687 | 1.03 | 1.05 |
| NCI-H661 | 0.555 | 0.484 | 0.436 | 0.267 | 0.186 | 0.942 | – | 0.955 | 0.888 | 0.726 | 0.769 | 0.688 | 0.852 | 0.885 | 0.973 | 1.03 | 1.03 | 1.17 | 0.973 |
| NCI-H727 | 0.859 | 0.587 | 0.432 | 0.393 | 0.316 | 0.329 | 0.402 | 0.345 | 0.295 | 0.822 | 0.884 | 0.665 | 0.742 | 0.912 | 0.964 | 0.779 | 0.782 | 0.856 | 1.03 |
| NCI-H1734 | 0.495 | 0.353 | 0.215 | 0.147 | 0.122 | 0.173 | 0.193 | 0.198 | 0.189 | 1.01 | 0.937 | 0.731 | 0.914 | 1.25 | 0.658 | 0.754 | 0.583 | 0.703 | 0.787 |
| EKVX | 0.31 | 0.271 | 0.202 | 0.191 | 0.18 | 0.647 | – | 0.166 | 0.152 | 1 | 0.999 | 0.859 | 1.04 | 1.05 | 1.17 | 0.871 | 0.692 | 0.907 | 0.947 |
| NCI-H596 | 1.01 | 0.885 | 0.712 | 0.366 | 0.504 | 1 | 0.728 | 0.726 | 0.542 | 1.04 | 1.08 | 0.831 | 1 | 1.21 | 0.896 | 1.05 | 0.913 | 0.991 | 1.04 |
